Counter-ions that a name gives are not always drawn.
test system: HCT116; assay: efficacy (fitted maximal change in viability relative to DMSO control); higher = less cytotoxic (negative = loss of viability); settings: 48 h
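Also: Luminescence-based viability readout, five doses per compound, normalized against on-plate DMSO and empty-well controls, followed by dose-response curve fitting for every drug.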

Compound | efficacy
CN1C(=O)/C=C(/NCCN(CCO)CCCC2=CC=C(C=C2)[N+]([O-])=O)N(C)C1=O [Nifekalant] | -10%
CC1(C)NC(=O)N(c2ccc([N+](=O)[O-])c(C(F)(F)F)c2)C1=O [Nilutamide] | -35.5%
C[S+](=O)([O-])Nc1ccc([N+](=O)[O-])cc1Oc1ccccc1 [Nimesulide] | -15.6%
O=[N+]([O-])c1cncn1CCN1CCOCC1 [Nimorazole] | -10.3%
NC[C@H](O)c1ccc(O)c(O)c1 [Noradrenaline bitartrate monohydrate] | 10.7%
CCN1\C=C(\C(O)=O)C(=O)C2=C1C=C(N3CCNCC3)C(=C2)F [Norfloxacin] | 9.53%
CO[C@@H]1[C@@H](OC(N)=O)[C@@H](O)[C@H](OC2=CC=C3\C(=C(NC(=O)C4=CC=C([O-])C(=C4)CC=C(C)C)/C(=O)OC3=C2C)O)OC1(C)C [Novobiocin sodium] | 3.79%
Nc1nc(OCc2ccccc2)c2nc[nH]c2n1 [O6-Benzylguanine] | -34.3%
CN1CCN(CC1)C2=C(NC(=O)C/3=C/NC(=O)/C=C3C(F)(F)F)C=C(C=C2)C4=CC(=CC=C4)CN5CCOCC5 [OICR-9429] | -23.2%
CC#CC(=O)N1CC[C@@H](n2c(=O)n(-c3ccc(Oc4ccccc4)cc3)c3c(N)ncnc32)C1 [ONO-4059 (GS-4059)] | -53.5%
C=CC(=O)N1CCC[C@H](n2c(=O)n(-c3ccc(Oc4ccccc4)cc3)c3c(N)ncnc32)C1 [ONO-4059 analog] | -67.4%
CCOCOC[C@H](C[C@H](C)C(=O)NO)NC(=O)c1ccc(Oc2ccccc2)cc1 [ONO-4817] | -33.1%
CN(C)CCNC(=O)COc1c2cccc1Cc1cccc(c1OCC(=O)NCCN(C)C)Cc1cccc(c1OCC(=O)NCCN(C)C)Cc1cccc(c1OCC(=O)NCCN(C)C)C2 [OTX-008] | -46.7%
CCC(CCCC)COC(=O)C(\C#N)=C(\c1ccccc1)c2ccccc2 (stereo not given) [Octocrylene] | -31.5%
C[C@@H](O)[C@@H]1NC(=O)[C@H](CCCCN)NC(=O)[C@@H](Cc2c[nH]c3ccccc23)NC(=O)[C@H](Cc2ccccc2)NC(=O)[C@@H](NC(=O)[C@H](N)Cc2ccccc2)CSSC[C@@H](C(=O)N[C@H](CO)[C@@H](C)O)NC1=O [Octreotide] | 9.15%
CC(C)(F)C[C@H](N[C@@H](c1ccc(-c2ccc([S+](C)(=O)[O-])cc2)cc1)C(F)(F)F)C(=O)NC1(C#N)CC1 [Odanacatib] | -28.3%
CC1COC2=C3N1\C=C(C(O)=O)/C(=O)C3=CC(=C2N4CCN(C)CC4)F (stereo not given) [Ofloxacin] | -9.68%
N[C@@H](CCC(=O)O)C(=O)N[C@@H](Cc1c[nH]c2ccccc12)C(=O)O [Oglufanide] | -13.7%
FC1=C(C=C(C/C2=N/NC(=O)C3=C2C=CC=C3)C=C1)C(=O)N4CCN(CC4)C(=O)C5CC5 [Olaparib] | -38.8%
CCCc1nc(C(C)(C)O)c(C(=O)O)n1Cc1ccc(-c2ccccc2-c2nn[nH]n2)cc1 [Olmesartan] | -6.46%
CN(C)CC/C=C1/c2ccccc2COc2ccc(CC(=O)O)cc21 [Olopatadine hydrochloride] | 5.52%
C\C1=C(\SSC1=S)C2=CN=CC=N2 [Oltipraz] | -26.5%
COC(=O)N1CCN(Cc2cccc(NC(=O)Nc3ccc(C)nc3)c2F)CC1 [Omecamtiv mecarbil] | -28.6%
COc1ccc2[nH]c([S+]([O-])Cc3ncc(C)c(OC)c3C)nc2c1 (stereo not given) [Omeprazole] | -17.5%

Compound | efficacy
CN(CC#C)C/C1=C/C2=CC=CC=C2OC3=CC=CC=C13 [Omigapil] | -34.5%
CCCCCCCCCCCC(CC1OC(=O)C1CCCCCC)OC(=O)C(CC(C)C)NC=O (stereo not given) [Orlistat] | -6.83%
OC(=O)C/1=C/C(=O)NC(=O)N1 [Orotic acid] | -16.5%
CNC(=O)c1ccc2cc(C3(O)CCn4cncc43)ccc2c1 (stereo not given) [Orteronel] | -5.91%
CCOC(=O)\C1=C\[C@@H](OC(CC)CC)[C@H](NC(C)=O)[C@@H](N)C1 [Oseltamivir phosphate] | 13%
OCCOc1ccc(/C(=C(/CCCl)c2ccccc2)c2ccccc2)cc1 [Ospemifene] | -49.5%
C[C@]12COC(=O)C[C@@H]1CC[C@@H]1[C@@H]2CC[C@@]2(C)[C@H]1CC[C@]2(C)O [Oxandrolone] | -21.6%
O=C1CCC[C@@H]2[C@H]3CCC[N+]4([O-])CCC[C@@H](CN12)[C@@H]34 (stereo not given in full) [Oxymatrine] | -29.8%
CC1=CC(=C(O)C(=C1C\C2=N\CCN2)C)C(C)(C)C [Oxymetazoline hydrochloride] | -19.1%
CC(C)Oc1ccc(-c2nc(-c3cccc4c3CC[C@@H]4NCCO)no2)cc1C#N [Ozanimod] | -31.3%
O=[N+]([O-])c1cn2c(n1)OC[C@@H](OCc1ccc(OC(F)(F)F)cc1)C2 [PA-824] | -19.8%
COc1cc(OCc2cccc(-c3ccccc3)c2C)cc(OC)c1CN1CCCC[C@H]1C(=O)O [PD-1/PD-L1 Inhibitor 1] | -62%
FC1=CC=C(CN2\C=C/C=C(/C(=O)N[C@@H](COC3=CC4=C(NC(=O)N4)C=C3)C5=CC=CC=C5)C2=O)C=C1F [PDPK1 Inhibitor] | -72.1%
O=C(CCN1CCN(C(=O)OCc2cc(Cl)cc(Cl)c2)CC1)c1ccc2[nH]c(=O)oc2c1 [PF-8380] | -11.3%
O=C(/C=C/N1C[C@H]2C[C@@H]1CN2c1ccccn1)c1ccccc1O [PFI-3] | -9.44%
COc1ccccc1C(=O)Nc1cc2c(cc1N1CCCC1)n(C)c(=O)n2C [PFI-4] | -64%
CCCCCCCCCCCCc1ccc([S+](=O)([O-])Nc2nncs2)cc1 [PHT-427] | -13.9%
CC1=C(C=CC=C1)N2\C(=N/C3=C(C(=CC=C3)C)C2=O)C[N]4N=CC5=C4N=CN=C5N [PIK-293] | -6.78%
O=C(CCCc1ccc2cccnc2n1)NCc1cc(-c2ccc(F)c(C(F)(F)F)c2)no1 [PRP003-062] | -32.2%
Clc1cccc(-c2ccc(-c3nnc(CCCc4ccc5cccnc5n4)o3)cc2)c1 [PRP003-073] | -17.9%
O=C(Nc1cc(Cl)cc2c1[nH]c1cnccc12)c1cccnc1 [PS-1145] | 18.5%
C[S+](=O)([O-])c1ccc(Oc2cc(F)cc(C#N)c2)c2c1[C@H](O)C(F)(F)C2 [PT-2385] | -10.6%
O=C(O)c1cccc(-c2noc(-c3ccccc3F)n2)c1 [PTC-124] | -22.5%
C=CCN(/C=C1\C(=O)O[C@@H](COC)[C@]2(C)C1=C(O)C(=O)C1=C2[C@@H](OC(C)=O)C[C@]2(C)C(=O)CC[C@H]12)CC=C [PX-866] | -20.5%

Compound | efficacy
CN1CCCN=C1/C=C/c1cccs1 [PYRANTEL PAMOATE] | -47%
CC(=O)O[C@H]1C(=O)[C@]2(C)[C@@H](O)C[C@H]3OC[C@@]3(OC(C)=O)C2[C@H](OC(=O)C4=CC=CC=C4)[C@]5(O)C[C@H](OC(=O)[C@H](O)[C@@H](NC(=O)C6=CC=CC=C6)C7=CC=CC=C7)\C(=C1/C5(C)C)C (stereo not given in full) [Paclitaxel] | -68.3%
CC(=O)O[C@H]1C[C@@H]2CC[C@@H]3[C@H](CC[C@@]4(C)[C@H]3C[C@H]([N+]3(C)CCCCC3)[C@@H]4OC(C)=O)[C@@]2(C)C[C@@H]1[N+]1(C)CCCCC1 [Pancuronium bromide] | -8.83%
COc1ccnc(C[S+]([O-])c2nc3cc(OC(F)F)ccc3[nH]2)c1OC (stereo not given) [Pantoprazole] | -34.5%
CCC(=O)[N-]S(=O)(=O)c1ccc(-c2c(-c3ccccc3)noc2C)cc1.[Na+] [Parecoxib sodium] | -9.88%
CCN1\C=C(C(O)=O)/C(=O)C2=C1C=C(N3CCN(C)CC3)C(=C2)F [Pefloxacin] | 5.51%
CSCC[C@H](NC(=O)[C@H](Cc1c[nH]c2ccccc12)NC(=O)CCNC(=O)OC(C)(C)C)C(=O)N[C@@H](CC(=O)O)C(=O)N[C@@H](Cc1ccccc1)C(N)=O [Pentagastrin] | -5.16%
CC(C)CC(=O)N[C@H](C(=O)N[C@H](C(=O)N[C@@H](CC(C)C)[C@@H](O)CC(=O)N[C@@H](C)C(=O)N[C@@H](CC(C)C)[C@@H](O)CC(=O)O)C(C)C)C(C)C [Pepstatin] | -6.41%
CCC[C@H](N[C@@H](C)C(=O)N1[C@H](C(=O)O)C[C@@H]2CCCC[C@@H]21)C(=O)OCC [Perindopril] | 9%
FC(F)(F)c1ccc(CNc2ccc(Cc3c[nH]c4ncc(Cl)cc34)cn2)cn1 [Pexidartinib] | -21.9%
NNCCc1ccccc1.O=S(=O)(O)O [Phenelzine] | -40.1%
CC(COc1ccccc1)N(CCCl)Cc1ccccc1 (stereo not given) [Phenoxybenzamine hydrochloride] | -19.8%
O=C(CCc1ccc(O)cc1)c1c(O)cc(O)cc1O [Phloretin] | 6.68%
O=C(CCc1ccc(O)cc1)c1c(O)cc(O)cc1O[C@@H]1O[C@H](CO)[C@@H](O)[C@H](O)[C@H]1O [Phlorizin] | -28.6%
Nc1nccc(-c2ccc3noc(-c4ccc(Cl)cc4)c3c2)n1 [Pim 1 Inhibitor 2] | -55%
CCc1ccc(CCOc2ccc(CC3SC(=O)NC3=O)cc2)nc1 (stereo not given) [Pioglitazone hydrochloride] | 16.5%
Clc1ccc2c(N3CCN(CCCN4CCN(c5ccnc6cc(Cl)ccc56)CC4)CC3)ccnc2c1 [Piperaquine] | -15.3%
c1cc(CN2CCCNCCNCCCNCC2)ccc1CN1CCCNCCNCCCNCC1 [Plerixafor hydrochloride] | -8.04%
COc1cc([C@@H]2c3cc4c(cc3[C@H](O)[C@H]3COC(=O)[C@H]23)OCO4)cc(OC)c1OC [Podofilox] | -62.3%
CCC(C)CCCCC(=O)N[C@@H](CCN)C(=O)NC(C(=O)N[C@H](CCN)C(=O)N[C@@H]1CCNC(=O)C([C@@H](C)O)NC(=O)[C@@H](CCN)NC(=O)[C@@H](CCN)NC(=O)[C@@H](CC(C)C)NC(=O)[C@H](Cc2ccccc2)NC(=O)[C@H](CCN)NC1=O)[C@@H](C)O (stereo not given in full) [Polymyxin B sulphate] | -10.6%
Nc1cccc2c1C(=O)N(C1CCC(=O)NC1=O)C2=O (stereo not given) [Pomalidomide] | -14.1%
COC12C(COC(N)=O)\C3=C(/N1CC4C2N4C)C(=O)C(=C(N)/C3=O)\C (stereo not given) [Porfiromycin] | -81%

Reference: the supplement of paper PMC10290057
